Experimental data taken from US20050069883A1 (priority 2001, published 2005).
Bridge positions count the residues as written; N and C are the ends. Ends that are not written are not given here.

Experiments:
MCH-1R(Δ316/EGFP) = test: Functional activation, aequorin assay (mobilization of intracellular calcium); assay type: cell-based, human; details: FIG. 6; transiently transfected HEK293-AEQ17 cells, aequorin bioluminescence
Experimental: Functional activation of MCH-1R […] was measured in an aequorin assay. Proteins were introduced in the stable reporter cell line HEK293-AEQ17 in which mobilization of intracellular calcium can be detected by bioluminescence of jelly fish aequorin upon calcium binding.
Bioluminescence was detected using a Luminoskan RT luminometer (Labsystems Inc., Gaithersburg, Md.). HEK293-AEQ17 cells were maintained in D-MEM/high glucose medium (Life Technologies, Rockville, Md.) supplemented with 10% fetal bovine serum, […] G418, 25 mM Hepes at 37° C. with 5% CO2 in a humidified atmosphere. […]
The cells were harvested, washed once in ECB medium and resuspended to 500,000 cells/ml. […] of cell suspension (corresponding to 5×10^4 cells) was then injected into a 96-well test plate, and the integrated light emission was recorded over 30 seconds, in 0.5 second units. 20 μL of lysis buffer (0.1% final Triton X-100 concentration) was then injected and the integrated light emission recorded over 10 seconds, in 0.5 second units. The “fractional response” values for each well were calculated by taking the ratio of the integrated response to the initial challenge to the total integrated luminescence including the Triton X-100 lysis response.

[1] = biological target: human melanin-concentrating hormone receptor (MCH-1R) (human) (UniProt Q99705); test: scintillation proximity assay, HEK293-AEQ17/MCH-1R membranes; non-specific binding defined with 500 nM unlabeled MCH
human melanin-concentrating hormone receptor (MCH-1R) (human), sequence (Q99705 whole entry): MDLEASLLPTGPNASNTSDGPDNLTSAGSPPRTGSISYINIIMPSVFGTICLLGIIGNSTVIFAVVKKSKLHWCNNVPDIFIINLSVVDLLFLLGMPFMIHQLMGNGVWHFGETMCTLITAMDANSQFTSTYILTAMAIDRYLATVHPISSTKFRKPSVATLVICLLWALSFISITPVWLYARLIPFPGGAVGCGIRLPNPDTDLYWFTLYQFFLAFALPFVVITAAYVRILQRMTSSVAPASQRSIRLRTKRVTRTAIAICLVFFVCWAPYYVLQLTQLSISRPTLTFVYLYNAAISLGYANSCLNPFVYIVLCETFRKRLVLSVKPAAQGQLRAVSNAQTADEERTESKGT

Melanin-concentrating hormone (DFDMLRCMLGRVYRPCWQV; disulfide 7-16 (inferred); ends not checked) [MCH, cyclic 19-amino acid neuropeptide, MCH-1R agonist]
functional activation of MCH-1R(Δ316/EGFP) (mobilization of intracellular calcium) (MCH-1R(Δ316/EGFP)): lack of functional activation

[125I]Phe13Tyr19-MCH (from UniProt P20382 147-165) (peptide)
specific binding window [1]: > 6 x (fold)
